Measured values published in US20050158280A1, “Method of reducing angiogenesis” (priority 2001, published 2005).

Assays:
monocyte/macrophages = assay: Transmigration of monocyte/macrophages through an endothelial cell monolayer; type: cell-based, mouse
Description: (§1) Transmigration assays through an endothelial cell monolayer were performed (Jones, G. E. J. Leukoc. Biol. 68:593-602, 2000). Murine 2F2B endothelial cells (ATCC) were plated on collagen type 1-coated polycarbonate inserts with 3-μm pores (Costar, Fisher Scientific) and then incubated in RPMI containing 5% FCS overnight to attain full confluence. Wild-type or cd39-null peritoneal macrophages were added to the upper chamber and incubated at 37° C. in 5% CO2 for 10 hours. In the lower chamber, culture media with chemoattractant factors at various combinations were added: ATP 200 μmol/L, serotonin 20 μmol/L, and monocyte chemoattractant factor-1 (MCP-1) 50 ng/mL. Nonadherent cells in both supernatant fluids were counted. In parallel experiments, inserts were precoated with collagen or MATRIGEL® alone. Wild-type and cd39-null macrophages were plated on the upper surface of coated inserts. Cells were allowed to adhere and migrate over a 6-hour period. Cells on the lower surface were fixed in 2% ethanol and stained with 0.2% crystal violet (Sigma). Four fields of vision (×400) per well were randomly chosen, and cell counts were performed manually by 2 observers in a blinded fashion.

macrophages = assay: Transmigration of macrophages on MATRIGEL-coated Transwell membranes; type: cell-based, mouse; conditions: for number of transmigrated macrophages (normalized to wild-type): cd39-null macrophages, nonstimulated null 80±30.0% of wild-type; for number of transmigrated macrophages (normalized to wild-type) / number of transmigrated macrophages (normalized): MATRIGEL-coated Transwell; for number of transmigrated macrophages (normalized): wild-type macrophages, no endothelial cells, ATP 200 μmol/L, serotonin 20 μmol/L, MCP-1 50 ng/mL; for migration through MATRIGEL (FIG. 5, in words): cd39-null knockout (KO) macrophages
Description: as §1

ATPDase/CD39 [1] = conditions: cited from earlier work; for Specific ADPase activity / ATPase activity: HUVEC lysate, n=6; for Specific ADPase activity: mean SD, control liposomes 26.0±3.1; for ATPase activity: control liposomes 28.2±4.6
ATPDase/CD39 [2] = conditions: COS-7 cells; cited from earlier work
HUVEC [3] = conditions: cited from earlier work
HUVEC [4] = conditions: cited from earlier work; for rate of ATP hydrolysis by EC: HUVEC after transfection, n=9, liposome treated controls 17.9
CD39 mRNA = conditions: HUVEC, 48 h post-transfection; vs scrambled oligonucleotides and control liposomes; cited from earlier work
CD39 = conditions: HUVEC, cited from earlier work; for immunoreactive intact CD39 (densitometric analysis of Western blot): 48 h after transfection, control liposomes = 100%
peritoneal macrophages = assay: Cytofluorometric (FACS) analysis of macrophage integrin/ICAM-1 surface expression; type: cell-based, mouse; conditions: 200 μmol/L, vs control; for αmβ2 (MAC-1) and ICAM-1 coexpression levels: quiescent cd39-null macrophages; for cell surface coexpression of αmβ2 (MAC-1) and ICAM-1: wild-type macrophages, 30 minutes
Description: After isolation, naive peritoneal macrophages were also stimulated for 30 minutes (or for 24 hours) in RPMI+5% FCS, both at 37° C., with ATP 200 μmol/L, or with ATPγS 200 μmol/L, and then washed with PBS. Nonspecific binding of isospecific IgG was controlled by incubation with isospecific IgG conjugated to FITC and phycoerythrin, respectively. Cells were double-stained with phycoerythrin-conjugated rat anti-mouse CD11b in conjunction with FITC-labeled anti-mouse intercellular adhesion molecule (ICAM)-1 (or very late antigen-1, -4), respectively. Fluorescence-activated cell sorter (FACS) analysis was performed (FACSCAN™, Becton Dickinson). Data were analyzed with CELLQUEST™ computer software (Becton Dickinson).

[5] = cd39-null monocyte/macrophages, ATP 200 μmol/L or MCP-1 50 ng/mL, spontaneous 6200±1200
[6] = wild-type monocyte/macrophages, ATP 200 μmol/L or MCP-1 50 ng/mL in lower chamber, spontaneous 4900±400

Row | Molecule | monocyte/macrophages migrated across the endothelial cell monolayer (monocyte/macrophages; [5]) | monocyte/macrophages migrated across the endothelial cell monolayer (monocyte/macrophages; [6]) | number of transmigrated macrophages (normalized to wild-type) (macrophages) [%] | number of transmigrated macrophages (normalized) (macrophages) [%] | migration through MATRIGEL (FIG. 5, in words) (macrophages) | Specific ADPase activity (ATPDase/CD39 [1]) [nmole Pi/min/mg protein] | ATPase activity (ATPDase/CD39 [1]) [nmole Pi/min/mg protein] | Total cell protein content (HUVEC [3]) | rate of ATP hydrolysis by EC (HUVEC [4]) [pmole/min/10^6cells] | immunoreactive intact CD39 (densitometric analysis of Western blot) (CD39) [%] | αmβ2 (MAC-1) and ICAM-1 coexpression levels (peritoneal macrophages) | cell surface coexpression of αmβ2 (MAC-1) and ICAM-1 (peritoneal macrophages) | further results
1 | monocyte chemoattractant factor-1 [MCP-1] | 35,200±7,300 cells | 61,800±23,400 cells | 303±17 | 450±20 |  |  |  |  |  |  |  |  | 
2 | NCCc1c[nH]c2ccc(O)cc12 [serotonin] |  |  | 98±20.0 | 120±20 | no substantial effect |  |  |  |  |  |  |  | 
3 | 5′-CTCCTTTGTATCTTCCATAAGTAGC-3′ (antisense CTCCTTTGTATCTTCCATAAGTAGC; chimeric second generation modifications, further chemistry not given here) [antisense oligonucleotides] |  |  |  |  |  | 9.5±3.4 | 15.1±3.4 | 17.6±2.8 (g/10^6cells | 4.8 | 66 |  |  | ATPase activity, of control levels (ATPDase/CD39 [1]; HUVEC, residual activity): 53%; ATPase activity, of that for scrambled control oligomers (ATPDase/CD39 [1]; HUVEC, residual activity): 51%; Normalized ADPase activity, compared with scrambled oligomers (ATPDase/CD39 [1]; HUVEC, residual activity): 42%; Normalized ADPase activity, of control liposomes (ATPDase/CD39 [1]; HUVEC, residual activity): 36%; ADPase levels, of control cells transfected with CD39 cDNA (ATPDase/CD39 [2]): 15%; ATPase levels, of control cells transfected with CD39 cDNA (ATPDase/CD39 [2]): approximately 5%; cell viability determined by trypan blue exclusion (HUVEC [3]): over 90%; boost of area under curve estimates of ATP release (HUVEC [4]; ADP-stimulated HUVEC, over first 15 min, compared to controls): 194%; CD39 mRNA expression (Northern blotting) (CD39 mRNA): specifically inhibited transcription of CD39 mRNA; apparent decrease in CD39 protein expression (qualitative Western blotting) (CD39; 48 h): approximately 40%
4 | Nc1ncnc2c1ncn2[C@@H]1O[C@H](COP(=O)(O)OP(=O)(O)OP(O)(O)=S)[C@@H](O)[C@H]1O [ATPγS] |  |  |  |  |  |  |  |  |  |  | largely unaltered | increased significantly | 
5 | Nc1ncnc2c1ncn2[C@@H]1O[C@H](COP(=O)(O)OP(=O)(O)OP(=O)(O)O)[C@@H](O)[C@H]1O [ATP, adenosine triphosphate] | 8,750±4,100 cells | 22,300±3,300 cells | 108±24 | 230±20 | no substantial effect |  |  |  |  |  | largely unaltered | increased significantly | 
6 | 5′-TTCGTATCTTCGCTAGCTTATACAC-3′ (TTCGTATCTTCGCTAGCTTATACAC; chemistry not given here) [scrambled control oligonucleotides, scrambled control oligonucleotide] |  |  |  |  |  | 22.6±2.1 | 29.1±1.2 | 17.7±1.8 (g/10^6cells | 19.6 | 103 |  |  | 
